Test system: rice
Experiment: Pot experiment: foliar application on rice grown in arsenic-contaminated soil (Example 4)
Format: in vivo, rice (variety Youyou 128)
Source text: The pot experiment for showing the effects of relieving the heavy metal poison in rice by foliar application of the selenium-doped nano-silica sol.
The soils to be tested were collected from an arsenic-contaminated rice field, in Yanhong Town, Chenghai District, Shantou City, Guangdong Province, China, the surface layer of the cultivated soils (0-10 cm) in the rice field was taken as the soil, air-dried and sieved, 10 kg of the soil were weighed and filled into barrels, wherein the basic physical and chemical properties of the soil were as follows: pH 6.12, organic matter 2.73%, total nitrogen 1.5 g/kg, total phosphorus 1.02 g/kg, total potassium 11.3 g/kg, CEC 8.75 cmol/kg, total arsenic 93.6 mg/kg, and total selenium 0.879 mg/kg.
Cultivation and treatment of rice: the rice variety was Youyou 128, the rice seed surface was disinfected for 15 minutes with 5% sodium hypochlorite solution, after washing with tap water, germination and seedling were carried out, then the uniform young seedlings were selected and transplanted. […] Each of the treatments was repeated four times, and the rices were harvested after they were matured. The dry weight of rice per pot was weighed, and the arsenic and selenium contents in rice were analyzed.

SMILES: O=[Se]([O-])[O-].[Na+].[Na+] [1% Se, sodium selenite]
- selenium content in rice relative to that after the selenium-doped nano-silica sol with 1% selenium (foliar application): 66%
- dry weight of rice grain reduced as compared with the control (foliar application at tillering stage, diluted 100-fold, arsenic-contaminated soil): 13.1%
- selenium content in rice (foliar application, diluted 100-fold, control 0.050 mg/kg): 0.180 mg/kg
- reduction of arsenic content in rice as compared with the control (foliar application, diluted 100-fold, soil total arsenic 93.6 mg/kg): 19%

Source: patent US9919978B2, “Selenium-doped nano silica sol used for producing selenium-enriched rice and capable of suppressing absorption and accumulation of heavy metals in paddy rice and preparation method therefor” (GUANGDONG INSTITUTE OF ECO-ENV[…] & TECHNOLOGY, priority 2013, dated 2018)
